Ends that are not written are not given here.
Assays:
[1] = system: A. baumannii ATCC19606; experiment: Outer membrane permeabilization (NPN uptake) assay; type: cell-based, Acinetobacter baumannii; conditions: peptides at MIC, compared to untreated control and polymyxin B
Protocol: FIG. 3. Synergy, resistance development and mechanism of action studies of encrypted peptides. […] (FIG. 3B) Evolution of resistance by A. baumannii to encrypted peptides derived from the CUB domain (red) or polymyxin B (gray) after 30 days of serial passaging in liquid nutrient broth. Peptides and antibiotics were used at sub-inhibitory concentrations. Cells were passaged every 48 h. […] (FIG. 3D) Cytoplasmic membrane depolarization effects of the encrypted peptides against A. baumannii. (FIG. 3E) NPN assays showing the effect of encrypted peptides derived from the CUB domain and natriuretic peptide on permeabilization of the outer membrane of A. baumannii.
In order to investigate the mode of action of encrypted peptides against bacterial cells, assays were performed to study their effects on the bacterial membrane. First, the ability of encrypted peptides to disrupt and depolarize the bacterial cytoplasmic membrane was assessed […]. 3,3′-dipropylthiadicarbocyanine iodide [DiSC3(5)] was used, a potentiometric fluorophore that accumulates and aggregates in the cytoplasmic membrane, quenching its fluorescence. Upon imbalances of the cytoplasmic membrane transmembrane potential, the fluorophore migrates to the cytoplasm or the outer environment, generating fluorescence. […]
Methods: Membrane depolarization assays. The cytoplasmic membrane depolarization activity of the peptides was determined by measurements of fluorescence of the membrane potential-sensitive dye, DiSC3(5). […] Thereafter, the cells (100 μL) were incubated for 15 min with 20 nmol L^−1 of DiSC3(5) until a stable reduction of fluorescence was achieved, indicating the incorporation of the dye into the bacterial membrane. Membrane depolarization was then monitored by observing the change in the fluorescence emission intensity of the membrane potential-sensitive dye, DiSC3(5) (λex=622 nm, λem=670 nm), after the addition of peptides (100 μL solution at MIC values). […] The membrane permeability of the peptides was determined by using the N-phenyl-1-napthylamine (NPN) uptake assay. […]

[2] = system: A. baumannii ATCC19606; experiment: Neutropenic thigh infection mouse model; type: in vivo, Acinetobacter baumannii; conditions: for anti-infective activity (FIG. 4E): alone, A. baumannii ATCC19606; for decrease of bacterial counts compared to untreated controls: mice, 25 μmol L^−1 intramuscular, three days post-treatment, A. baumannii
Description: FIG. 4. Anti-infective activity and synergistic interactions of encrypted peptides in vivo. (FIG. 4A) Schematic of the skin abscess mouse model used to assess the anti-infective activity of selected encrypted peptides from plasma proteins. […] (FIG. 4C) Mouse weight was monitored throughout the experiment (2 days) to rule out potential toxic effects of the encrypted peptides. (FIG. 4D) Schematic of the neutropenic thigh infection mouse model used to assess the anti-infective activity of selected encrypted peptides from plasma proteins. […] (FIG. 4F) Mouse weight was monitored throughout the experiment (8 days) to rule out potential toxic effects of the encrypted peptides.
Next, the efficacy of the same encrypted peptides (SCUB1-SKE25 and SCUB3-MLP22) was assessed in monotherapy and in combination therapy in a murine thigh infection model (FIG. 4D). This preclinical model is sensitive, standardized, and widely used for assessing antibiotic translatability^43,44. Briefly, mice were rendered neutropenic by cyclophosphamide treatment prior to intramuscular infection with 10^6 cells mL^−1 of the bacterial pathogens P. aeruginosa and A. baumannii (FIG. 4E). Either a single dose of each encrypted peptide (at 25 μmol L^−1) or their combination (also at 25 μmol L^−1) were delivered to the infected site via intramuscular administration. Three days post-treatment, on average the peptides reduced the bacterial load of P. aeruginosa and A. baumannii by 4 and 2 orders of magnitude, respectively, compared to untreated mice.
Methods: Skin abscess infection mouse model. A. baumannii ATCC19606 and P. aeruginosa strain PAO1 were used to infect the murine skin. Briefly, bacteria were grown in tryptic soy broth (TSB) medium. Subsequently, cells were washed twice with sterile PBS (pH 7.4, 13,000 rpm for 1 min), and resuspended to a final concentration of 1×10^5 and 1×10^6 CFU/20 μL for A. baumannii and P. aeruginosa, respectively. Female CD-1 mice (six-weeks old) were anesthetized with isoflurane and had their backs shaved and a superficial linear skin abrasion was made with a needle in order to damage the stratum corneum and upper-layer of the epidermis. […] Animals were euthanized and the area of scarified skin was excised two- and four-days post-infection, homogenized using a bead beater for 20 minutes (25 Hz), and 10-fold serially diluted for CFU quantification. […] Prior to each injection, mice were anesthetized with isoflurane and monitored (respiratory rate and pedal reflexes). Next, we monitored the formation of the abscess and euthanized the mice. The infected area was excised three-days post-infection, homogenized using a bead beater for 20 min (25 Hz), and 10-fold serially diluted for CFU quantification. […]

| Sequence | outer membrane permeabilization (NPN fluorescence) [1] | anti-infective activity (FIG. 4E) [2] | decrease of bacterial counts compared to untreated controls [2] |
| --- | --- | --- | --- |
| MLPKSFIKLLRSKVSSFLRPYK [SCUB3-MLP22] | increased fluorescence | reduced infections | 3 orders of magnitude |
| SKEMFPRSFIKLLRSKVSRFLRPYK [SCUB1-SKE25] | increased fluorescence | reduced infections | 3 orders of magnitude |
